This is an account of results in ChEMBL document CHEMBL3297650, “Discovery of novel oxindole derivatives as potent α-glucosidase inhibitors” (Bioorg Med Chem, 2014).

This assay in a line: Inhibition of yeast alpha-glucosidase (unknown origin) using para-nitrophenyl glucopyranoside as substrate preincubated for 10 mins before substrate addition measured after 30 mins by spectrophotometry. On the set-up: species or system Saccharomyces cerevisiae.

Take `COc1ccc(/C=C2/C(=O)Nc3cc(Cl)ccc32)cc1OC`: the IC50 turned out to be 411 µM.
`O=C1Nc2cc(Cl)ccc2/C1=C\c1ccc(O)c(O)c1` yielded a 50% inhibitory concentration (IC50) of 2.71 µM.
The molecule `O=C1Nc2cc(Cl)ccc2/C1=C\c1ccccc1[N+](=O)[O-]` gave a half-inhibitory concentration (IC50) of 11.4 µM. This IC50 is about 4.2-fold higher than that of the molecule before.
For the molecule `CCOc1cccc(/C=C2/C(=O)Nc3cc(Cl)ccc32)c1O`, it took 37.9 µM to reach half-maximal inhibition (IC50).
For the molecule `O=C1Nc2cc(Cl)ccc2/C1=C\c1cccc(O)c1`, half-maximal inhibition (IC50) was put at 15.2 µM.
Molecule `O=C1Nc2cc(Cl)ccc2/C1=C\c1ccc(O)cc1` came in with an IC50 of 24.7 µM.
To `O=C1Nc2cc(Cl)ccc2/C1=C\c1ccc(Cl)cc1Cl` belongs 55.6 µM.
`COc1cccc(/C=C2/C(=O)Nc3cc(Cl)ccc32)c1O` registered an IC50 of 72.2 µM.
As for `O=C1Nc2cc(Cl)ccc2/C1=C\c1ccc([N+](=O)[O-])cc1`, the IC50 was determined as 84.4 µM.
`CN(C)c1ccc(/C=C2/C(=O)Nc3cc(Cl)ccc32)cc1` showed an IC50 of 91.2 µM.
The value for `O=C1Nc2cc(Cl)ccc2/C1=C\c1ccccc1` was 196 µM; that for `COc1ccc(/C=C2/C(=O)Nc3cc(Cl)ccc32)c(OC)c1OC` was 341 µM.
On to `O=C1Nc2cc(Cl)ccc2/C1=C\c1cccc2ccccc12`, for which inhibition was half-maximal at 102 µM (IC50). This IC50 is about 3.3-fold lower than that of the molecule before.
Turning to `O=Cc1ccc(/C=C2/C(=O)Nc3cc(Cl)ccc32)cc1`, half-maximal inhibition (IC50) was put at 110 µM. The IC50 values of the last two molecules are within 1.5-fold of each other.
In the case of `O=C1Nc2cc(Cl)ccc2/C1=C\c1ccccc1Cl`, the IC50 worked out at 73.1 µM.
The molecule `CCOc1ccc(/C=C2/C(=O)Nc3cc(Cl)ccc32)cc1` returned an IC50 of 99.7 µM.
For the molecule `CSc1ccc(/C=C2/C(=O)Nc3cc(Cl)ccc32)cc1`, the IC50 is 51.8 µM.
Consider `COc1ccc(O)c(/C=C2/C(=O)Nc3cc(Cl)ccc32)c1`, for which the IC50 is 82.2 µM.
On to `COc1ccc(/C=C2/C(=O)Nc3cc(Cl)ccc32)cc1`, for which the IC50 worked out at 108 µM. The IC50 values of the last two molecules are within 1.5-fold of each other.
`O=C1Nc2cc(Cl)ccc2/C1=C\c1ccco1` yielded an IC50 of 173 µM.
The value for `Cc1ccc(/C=C2/C(=O)Nc3cc(Cl)ccc32)cc1` was 115 µM; that for `O=C1Nc2cc(Cl)ccc2/C1=C\c1c2ccccc2cc2ccccc12` was 17.3 µM.
The molecule `O=C1Nc2cc(Cl)ccc2/C1=C\c1c(Cl)cccc1Cl` returned an IC50 of 52.9 µM.
`CC(C)c1ccc(/C=C2/C(=O)Nc3cc(Cl)ccc32)cc1` had an IC50 of 14.3 µM.
Regarding `COc1cccc(/C=C2/C(=O)Nc3cc(Cl)ccc32)c1`, it took 139 µM to reach half-maximal inhibition (IC50).

The term IC50 denotes the concentration at which inhibition is half-maximal. High values mean lower potency, low ones higher potency.
